The values that follow come from patent EP1509519B1, “CRYSTALLINE FLUOROQUINOLONE ARGININE SALT FORM” (Wockhardt Limited, priority 2002, dated 2003).

Data set [1] is described as follows: antimicrobial activity.
The conditions of data set [2]: water.
Data set [3] in a line: mean mass diameter determination (laser diffraction). The settings on record: for Mean mass diameter: individual samples made by the procedure of example 1, laser diffraction.
A short description of data set [4]: bulk density determination. In kind it is physicochemical. From the text: Untapped density = 25 g/untapped volume. […] Tapped density = 25 g/Tapped volume.
Data set [5] in a line: bioavailability. Also noted: species or system mammals. The settings on record: in vivo.

Values joined by “and” are separate entries in the source; they are usually repeats but may differ in a detail not shown here. Identical values can stand only once.

In the case of `C[C@@H]1CCc2c(N3CCC(O)CC3)c(F)cc3c(=O)c(C(=O)O)cn1c23.N=C(N)NCCC[C@@H](N)C(=O)O` [R-(+)-9-fluoro-6,7-dihydro-8-(4-hydroxypiperidin-1-yl)-5-methyl-1-oxo-1H,5H-benzo[i,j]quinolizine-2-carboxylic acid D-arginine salt], the antimicrobial activity result in data set [1] was “have antimicrobial activity”. On to `C[C@H]1CCc2c(N3CCC(O)CC3)c(F)cc3c(=O)c(C(=O)O)cn1c23` [reference compound], for which, in data set [1], the “antimicrobial activity compared with the R-(+)- and RS-(±)-acids” value was “more potent antimicrobial activity”. For the same compound, the aqueous solubility (in general, how much of the substance goes into solution per volume) in data set [2] was in the range of 800 to 2000 µg/mL. Regarding `C[C@@H]1CCc2c(N3CCC(O)CC3)c(F)cc3c(=O)c(C(=O)O)cn1c23.N=C(N)NCCC[C@H](N)C(=O)O` [R-(+)-9-fluoro-6,7-dihydro-8-(4-hydroxypipe-1-yl)-5-1-oxo-1H,5H-benzo[i,j]quinolizine-2-carboxylic acid L-arginine salt], the antimicrobial activity result in data set [1] was “have antimicrobial activity”. On the same count and under the same terms, for “R-(+)-9-fluoro-6,7-dihydro-8-(4-hydroxypiperidin-1-yl)-5-methyl-1-oxo-1H,5H-benzo [ij]-quinolizine-2-carboxylic acid DL-arginine salt” the value was “have antimicrobial activity”; for `CC1CCc2c(N3CCC(O)CC3)c(F)cc3c(=O)c(C(=O)O)cn1c23.N=C(N)NCCC[C@@H](N)C(=O)O` (racemic) [RS-(±)-9-fluoro-6,7-dihydro-8-(4-hydroxypiuenidin-1-yl)-5-methyl-1-oxo-1H,5H-benzo[i,j]quinolizine-2-carboxylic acid D-argirrine salt], “have antimicrobial activity”. On the same count and under the same terms, for `CC1CCc2c(N3CCC(O)CC3)c(F)cc3c(=O)c(C(=O)O)cn1c23.N=C(N)NCCC[C@H](N)C(=O)O` (racemic) [RS-(±)-9-fluoro-6,7-dihydro-8-(4-hydroxypiperidin-1-yl)-5-methyl-1-oxo-1H,5H-benzo[i,j]quinolizine-2-carboxylic acid L-arginine salt] the value was “have antimicrobial activity”. On to `C[C@H]1CCc2c(N3CCC(O)CC3)c(F)cc3c(=O)c(C(=O)O)cn1c23`, for which the Mean mass diameter entry was “less than or equal to 40 µm” in data set [3] (hydrate); 32.92 µm and 24.22 µm and 34.51 µm and 39.07 µm in data set [3] (listed as Example 1, hydrate). In data set [3] (mean of four samples), the “Mean mass diameter, mean value” is listed as 32.68 µm. The “Bulk density (tapped)” value in data set [4] (25 gm/tapped volume, tapped 150 times) amounted to 0.64 g/mL. Further, the “Bulk density (untapped)” value in data set [4] (25 gm/untapped volume) came to 0.57 g/mL. The bioavailability entry in data set [5] is given as “favorable bioavailability”. `CC1CCc2c(N3CCC(O)CC3)c(F)cc3c(=O)c(C(=O)O)cn1c23.N=C(N)NCCCC(N)C(=O)O` (racemic) [R, S-9-fluoro-6,7-dihydro-8-(4-hydroxypiperidin-1-yl)-5-methyl-1-oxo-1H,5H-benzo [i,j]-quinolizine-2-carboxylic acid DL-arginine salt]: the antimicrobial activity entry in data set [1] was “have antimicrobial activity”. Still for that read-out and setting: for “S-(-)-9-fluoro-6,7-dihydro-8-(4-hydroxypiperidin-1-yl)-5-methyl-1-oxo-1H,5H-benzo [ij]-quinolizine-2-carboxylic acid DL-arginine salt” the value was “have antimicrobial activity”.
